From US20240360134A1, “PYRAZOLOPYRIMIDINES AND THEIR USES AS PDGFR INHIBITORS” (priority 2021, published 2024) come the findings set out here.

VEGFR2, unphosphorylated, sequence (P35968 whole entry, looked up): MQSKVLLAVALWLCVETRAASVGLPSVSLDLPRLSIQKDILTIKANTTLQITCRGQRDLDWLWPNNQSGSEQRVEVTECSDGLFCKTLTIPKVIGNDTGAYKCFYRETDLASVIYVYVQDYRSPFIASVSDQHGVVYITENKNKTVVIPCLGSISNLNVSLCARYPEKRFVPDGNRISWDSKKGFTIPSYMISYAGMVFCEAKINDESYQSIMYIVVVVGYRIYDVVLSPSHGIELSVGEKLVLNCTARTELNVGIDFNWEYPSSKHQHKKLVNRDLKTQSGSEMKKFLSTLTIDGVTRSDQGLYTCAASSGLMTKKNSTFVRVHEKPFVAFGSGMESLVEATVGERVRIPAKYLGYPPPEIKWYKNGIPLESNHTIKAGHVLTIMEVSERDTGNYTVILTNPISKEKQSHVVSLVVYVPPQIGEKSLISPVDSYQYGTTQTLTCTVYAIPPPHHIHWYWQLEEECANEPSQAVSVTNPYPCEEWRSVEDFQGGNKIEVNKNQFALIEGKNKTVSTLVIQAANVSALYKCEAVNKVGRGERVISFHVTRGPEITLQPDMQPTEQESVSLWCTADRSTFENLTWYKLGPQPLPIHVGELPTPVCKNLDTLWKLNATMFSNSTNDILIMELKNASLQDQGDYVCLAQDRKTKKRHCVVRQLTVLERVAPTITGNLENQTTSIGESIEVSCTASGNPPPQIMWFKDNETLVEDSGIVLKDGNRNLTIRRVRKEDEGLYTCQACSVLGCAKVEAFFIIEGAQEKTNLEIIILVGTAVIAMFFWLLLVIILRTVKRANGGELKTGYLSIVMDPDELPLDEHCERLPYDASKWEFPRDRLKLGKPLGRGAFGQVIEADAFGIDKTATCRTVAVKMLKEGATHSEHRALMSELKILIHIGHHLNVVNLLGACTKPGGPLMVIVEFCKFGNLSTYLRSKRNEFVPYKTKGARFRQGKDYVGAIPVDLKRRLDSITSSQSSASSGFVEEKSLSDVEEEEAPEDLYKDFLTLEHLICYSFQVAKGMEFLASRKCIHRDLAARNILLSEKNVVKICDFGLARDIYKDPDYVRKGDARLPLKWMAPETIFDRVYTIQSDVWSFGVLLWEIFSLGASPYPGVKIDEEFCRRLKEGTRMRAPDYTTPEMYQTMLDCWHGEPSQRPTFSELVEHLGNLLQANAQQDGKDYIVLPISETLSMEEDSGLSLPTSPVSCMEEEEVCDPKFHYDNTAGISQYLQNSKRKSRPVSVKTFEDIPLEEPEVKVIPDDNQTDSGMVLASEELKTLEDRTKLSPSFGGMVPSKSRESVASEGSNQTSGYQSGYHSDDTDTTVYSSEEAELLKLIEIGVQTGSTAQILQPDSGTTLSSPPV

The target in the first experiment is PDGFRβ (Rattus norvegicus (Rat), UniProt Q05030). The experiment is described as follows: PDGFRβ Cellular Assay (PDGFRb P-Y751 HTRF, PDGF-BB stimulated A10 cells). The format is cell-based.
PDGFRβ, sequence (Q05030 whole entry, looked up): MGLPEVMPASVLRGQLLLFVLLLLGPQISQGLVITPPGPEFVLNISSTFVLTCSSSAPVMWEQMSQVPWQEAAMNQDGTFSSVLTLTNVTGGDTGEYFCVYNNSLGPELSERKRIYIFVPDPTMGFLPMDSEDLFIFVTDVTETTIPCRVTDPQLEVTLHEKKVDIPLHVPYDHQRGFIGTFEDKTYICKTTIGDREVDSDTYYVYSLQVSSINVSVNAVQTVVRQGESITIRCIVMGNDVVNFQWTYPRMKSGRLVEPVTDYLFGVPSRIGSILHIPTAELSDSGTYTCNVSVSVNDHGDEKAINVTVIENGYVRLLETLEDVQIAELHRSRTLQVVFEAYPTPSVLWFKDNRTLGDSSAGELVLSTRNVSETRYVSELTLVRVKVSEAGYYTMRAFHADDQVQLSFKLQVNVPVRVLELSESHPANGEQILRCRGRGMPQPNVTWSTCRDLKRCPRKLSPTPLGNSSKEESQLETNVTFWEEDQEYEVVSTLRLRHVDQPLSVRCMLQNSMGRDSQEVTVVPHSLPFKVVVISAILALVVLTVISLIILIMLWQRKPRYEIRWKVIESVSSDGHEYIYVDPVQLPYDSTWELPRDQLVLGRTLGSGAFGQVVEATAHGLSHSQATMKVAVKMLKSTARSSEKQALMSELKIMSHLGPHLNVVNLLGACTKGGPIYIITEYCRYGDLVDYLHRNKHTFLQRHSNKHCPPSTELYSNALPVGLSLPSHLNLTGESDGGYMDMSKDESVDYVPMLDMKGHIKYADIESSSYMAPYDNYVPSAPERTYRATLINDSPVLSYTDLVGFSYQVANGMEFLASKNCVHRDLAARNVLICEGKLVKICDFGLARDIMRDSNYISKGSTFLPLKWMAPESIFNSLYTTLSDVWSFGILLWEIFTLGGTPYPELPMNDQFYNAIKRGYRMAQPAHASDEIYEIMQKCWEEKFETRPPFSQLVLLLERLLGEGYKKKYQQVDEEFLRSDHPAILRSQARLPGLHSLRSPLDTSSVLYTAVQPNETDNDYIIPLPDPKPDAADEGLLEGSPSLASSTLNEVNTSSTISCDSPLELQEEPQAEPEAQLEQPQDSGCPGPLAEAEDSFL
Conditions: not given
Here is the method: Cell Culture and Preparation: Cells are cultured according to ATCC procedure (5) with the addition of the antibiotic penicillin-streptomycin. If working from frozen, cells should be thawed according to ATCC procedure. Depending on the cell density of frozen vial, cells will need time to recover from thaw. An 80% confluent T75 flask should be enough for one 384 well plate.
Stock Solutions: Rat PDGFBB. A 100 ug/mL stock is prepared by reconstituting 50 ug in 500 μL of 4 mM HCl and 0.1% BSA. It can be stored for a month at 4° C., or aliquoted out and frozen in the −20/−80° C. to avoid multiple free-thaw cycles.
1× Cisbio cell lysis buffer. The cell lysis buffer is diluted 4-fold with molecular grade water. The blocking agent is then diluted 25-fold in the diluted lysis buffer.
Antibody solutions. Equal amounts d2 and cryptate antibody are diluted 20-fold in detection buffer.
Rat PDGFBB. A working stock of 100 ng/mL is created from the stock solution in 10% FBS culture media.
Step 1: Plating Cells: Media from the A10 cell flask is aspirated. The cells are rinsed with PBS and then trypsinized to disperse the cell layer. The cells are then pelleted are resuspended to 1.25e5 cells/mL. […] Plates are covered and placed in the incubator (37° C. 5% CO2) overnight to allow cells to adhere.
Step 2: Compound Dispense: Approximately 18 hours after plating, dispense 40 nL compound onto cells using Echo. […] The plate is returned to the incubator for 3 hours.
After 10 minutes the media is removed by flicking the plate.
Step 4: Cell lysis and antibody addition: 20 uL lysis buffer per well is added to the plate via Tempest. 5 uL antibody solution is added per well via the Tempest. The plate is placed on the shaker at 230 rpm for 1 hour at room temperature.
Step 5: Detection: The plate is read using the HTRF module on the BMG Pherastar. Data is analyzed using Genedata Screener.
IC50 values are determined from a 4-parameter fit, using the following equation: Y=Bottom+(Top−Bottom)/(1+10((Log IC50−X)*Hill slope)), where X=log10 of the compound concentration; top can be defined by PC; bottom defined by NC.
On to `Cc1ncc(C(=O)NCCN2CCOC3(CC3)C2)cc1Nc1nn(C)c2nc(Nc3cnn(C)c3)ncc12` [Example 54, N-(2-(4-oxa-7-azaspiro[2.5]octan-7-yl)ethyl)-6-methyl-5-((1-methyl-6-((1-methyl-1H-pyrazol-4-yl)amino)-1H-pyrazolo[3,4-d]pyrimidin-3-yl)amino)nicotinamide], for which the IC50 came to 36.3 nM. On to `Cc1ncc(C(=O)NCCN2CCCC23CC3)cc1Nc1nn(C)c2nc(Nc3cnn(C)c3)ncc12` [Example 53, N-(2-(4-azaspiro[2.4]heptan-4-yl)ethyl)-6-methyl-5-((1-methyl-6-((1-methyl-1H-pyrazol-4-yl)amino)-1H-pyrazolo[3,4-d]pyrimidin-3-yl)amino)nicotinamide], for which it took 6.2 nM to reach half-maximal inhibition (IC50). Regarding `Cc1ncc(C(=O)NCCN2CCC3(CCO3)CC2)cc1Nc1nn(C)c2nc(Nc3cnn(C)c3)ncc12` [Example 19, N-(2-(1-oxa-7-azaspiro[3.5]nonan-7-yl)ethyl)-6-methyl-5-((1-methyl-6-((1-methyl-1H-pyrazol-4-yl)amino)-1H-pyrazolo[3,4-d]pyrimidin-3-yl)amino)nicotinamide], the IC50 was determined as 56 nM.

The experiment is the same for the next values; noted with them: A10 cells, 3 hours compound, 15 ng/mL PDGFbb for 10 minutes; read-out: PDGFR Cellular IC50.
For `Cc1ncc(NC(=O)CN2CCC(F)(F)C2)cc1Nc1nn(C)c2nc(Nc3cnn(C)c3)ncc12` [Example 75, 2-(3,3-difluoropyrrolidin-1-yl)-N-(6-methyl-5-((1-methyl-6-((1-methyl-1H-pyrazol-4-yl)amino)-1H-pyrazolo[3,4-d]pyrimidin-3-yl)amino)pyridin-3-yl)acetamide], the IC50 is 4.9 nM. As to `Cc1ncc(NC(=O)CN2CC(F)(F)C2)cc1Nc1nn(C)c2nc(Nc3cnn(C)c3)ncc12` [Example 76, 2-(3,3-difluoroazetidin-1-yl)-N-(6-methyl-5-((1-methyl-6-((1-methyl-1H-pyrazol-4-yl)amino)-1H-pyrazolo[3,4-d]pyrimidin-3-yl)amino)pyridin-3-yl)acetamide], the IC50 came out at 13.1 nM. On the same count and under the same terms, to `Cc1ncc(NC(=O)CN2CCC[C@@H]2C)cc1Nc1nn(C)c2nc(Nc3cnn(C)c3)ncc12` [Example 71, (S)—N-(6-methyl-5-((1-methyl-6-((1-methyl-1H-pyrazol-4-yl)amino)-1H-pyrazolo[3,4-d]pyrimidin-3-yl)amino)pyridin-3-yl)-2-(2-methylpyrrolidin-1-yl)acetamide] belongs 1.7 nM. Same read-out and setting: to `COCCn1cc(Nc2ncc3c(Nc4cc(NC(=O)CN5CCC56CCC6)cnc4C)nn(C)c3n2)cn1` [Example 123, N-(5-((6-((1-(2-methoxyethyl)-1H-pyrazol-4-yl)amino)-1-methyl-1H-pyrazolo[3,4-d]pyrimidin-3-yl)amino)-6-methylpyridin-3-yl)-2-(1-azaspiro[3.3]heptan-1-yl)acetamide] belongs 4.7 nM; to `Cc1ncc(NC(=O)CN(CCO)C2CCCC2)cc1Nc1nn(C)c2nc(Nc3cnn(C)c3)ncc12` [Example 79, 2-(cyclopentyl(2-hydroxyethyl)amino)-N-(6-methyl-5-((1-methyl-6-((1-methyl-1H-pyrazol-4-yl)amino)-1H-pyrazolo[3,4-d]pyrimidin-3-yl)amino)pyridin-3-yl)acetamide], 23.5 nM; to `COC(=O)C(C)(C)c1cccc(Nc2ncc3c(Nc4cc(C(=O)NCCN5CCCC5(C)C)cnc4C)nn(C)c3n2)c1` [Example 46], 18.5 nM. On to `Cc1ncc(NC(=O)CN2C[C@@H](C)O[C@@H](C)C2)cc1Nc1nn(C)c2nc(Nc3cnn(C)c3)ncc12` [Example 78, 2-(cis-2,6-dimethylmorpholino)-N-(6-methyl-5-((1-methyl-6-((1-methyl-1H-pyrazol-4-yl)amino)-1H-pyrazolo[3,4-d]pyrimidin-3-yl)amino)pyridin-3-yl)acetamide], for which the IC50 is 8.3 nM. Turning to `COC(=O)Cc1cccc(Nc2ncc3c(Nc4cc(C(=O)NCCN5CCCC5(C)C)cnc4C)nn(C)c3n2)c1` [Example 43], the IC50 was found to be 24 nM. As for `Cc1ncc(NC(=O)CN2CCC3(CC3)C2)cc1Nc1nn(C)c2nc(Nc3cnn(C)c3)ncc12` [Example 74, N-(6-methyl-5-((1-methyl-6-((1-methyl-1H-pyrazol-4-yl)amino)-1H-pyrazolo[3,4-d]pyrimidin-3-yl)amino)pyridin-3-yl)-2-(5-azaspiro[2.4]heptan-5-yl)acetamide], the IC50 worked out at 1.7 nM. For `Cc1ncc(NC(=O)CN(CCCO)C2CCCC2)cc1Nc1nn(C)c2nc(Nc3cnn(C)c3)ncc12` [Example 80, 2-(cyclopentyl(3-hydroxypropyl)amino)-N-(6-methyl-5-((1-methyl-6-((1-methyl-1H-pyrazol-4-yl)amino)-1H-pyrazolo[3,4-d]pyrimidin-3-yl)amino)pyridin-3-yl)acetamide], the IC50 was found to be 16.6 nM.

For `Cc1ncc(NC(=O)CN2CCC(F)(F)CC2)cc1Nc1nn(C)c2nc(Nc3cnn(C)c3)ncc12` [Example 72, 2-(4,4-difluoropiperidin-1-yl)-N-(6-methyl-5-((1-methyl-6-((1-methyl-1H-pyrazol-4-yl)amino)-1H-pyrazolo[3,4-d]pyrimidin-3-yl)amino)pyridin-3-yl)acetamide], the IC50 was determined as 3.5 nM.

Turning to `Cc1ncc(NC(=O)CN2C[C@H](C)O[C@@H](C)C2)cc1Nc1nn(C)c2nc(Nc3cnn(C)c3)ncc12` (relative stereo) [Example 73, 2-(trans-2,6-dimethylmorpholino)-N-(6-methyl-5-((1-methyl-6-((1-methyl-1H-pyrazol-4-yl)amino)-1H-pyrazolo[3,4-d]pyrimidin-3-yl)amino)pyridin-3-yl)acetamide], the IC50 worked out at 5.3 nM.

A further experiment concerns the target VEGFR2, unphosphorylated (Homo sapiens (Human), UniProt P35968). The experiment is described as follows: VEGFR ADP GLO assay. Format: biochemical. As to conditions: 5 nM VEGFR2, 1.2 mM ATP, 1 mg/mL Srctide, 180 min. The protocol:
Assay buffer stock contains 50 mM HEPES pH7.5, 10 mM MgCl2, 0.01% Brij-35, and 1 mM EGTA.
Unphosphorylated VEGFR2. 52.6 μM in 50 mM Tris-HCl, pH 8.0, 50 mM NaCl, 5% Glycerol, 0.5 mM TCEP. Store at −80° C. in aliquots.
10 mg/mL srctide solution, prepared in Assay buffer (Assay buffer stock with 2 mM DTT, 0.1% Pluronic F-127, and 0.1 mg/mL ovalbumin). Sonicate 10 mg/ml Srctide solution for 10 minutes and then vacuum filter.
Assay buffer. Add DTT to 2 mM, Pluronic F-127 to 0.1% and ovalbumin to 0.1 mg/mL to Assay buffer stock.
2× kinase solution. Make a working solution of 10 nM unphosphorylated VEGFR2 in Assay buffer. Vacuum filter 2× kinase solution prior to running assay. Keep on ice until use.
2× substrate/ATP solution. Make a working solution of 2 mg/mL srctide and 2.4 mM ATP in Assay buffer. Keep on ice until use.
Step 1. Dispensing inhibitors/controls: Using Echo, dispense 10 nL/well compound serial dilutions in DMSO to columns 1-22 (in 384-well plates) or columns 1-44 (in 1536-well plates). Dilution series=11 pt, 3-fold dilutions. The top compound concentration in the source plate is 4 mM. The top compound concentration in the assay plate is 10 uM. Using Echo, dispense 10 nl/well DMSO to column 23 (in 384-well plates) or columns 45-47 (in 1536-well plates). These wells will serve as negative control wells Using Echo, dispense 10 nl/well 400 uM TAK-593 in DMSO to column 24 (in 384-well plates) or column 48 (in 1536-well plates). The final concentration of TAK-593 in the assay should be 1 uM. These wells will serve as positive control wells.
Step 2. Pre-incubation of inhibitors with kinase: Add 2 μL/well 2× kinase solution. Centrifuge at 1000 rpm for 1 min. Incubate at room temperature for 30 min.
Step 3. Kinase cascade reaction: Add 2 μL/well 2× substrate/ATP solution to initiate kinase reactions. Centrifuge at 1000 rpm for 1 min. Incubate at room temperature for 180 min.
Final concentrations of components in the assay:
Step 4. Quench: Add 2 uL/well ADP Glo Reagent+0.05% CHAPS. Centrifuge at 1000 rpm for 1 min; Incubate at room temperature for one hour.
Step 5. Detection: Add 2 uL/well Kinase Detection Reagent+0.05% CHAPS. Centrifuge at 1000 rpm for 1 min; Incubate at room temperature for 1 hour; Read Luminescence on a plate reader.
% Inhibition: % Inhibition=(NC−sample)/(NC−PC)*100 where NC is the mean of negative control (reactions without inhibitor), and PC is the mean of positive control (1 μM TAK-593).
IC50 values are determined from a 4-parameter fit, using the following equation: Y=Bottom+(Top−Bottom)/(1+10^(Log IC50-X)*Hill Slope), where X=log10 of the compound concentration; top can be defined by PC; bottom defined by NC.
Turning to `Cc1ncc(C(=O)NCCN2CCOC3(CC3)C2)cc1Nc1nn(C)c2nc(Nc3cnn(C)c3)ncc12` [Example 54, N-(2-(4-oxa-7-azaspiro[2.5]octan-7-yl)ethyl)-6-methyl-5-((1-methyl-6-((1-methyl-1H-pyrazol-4-yl)amino)-1H-pyrazolo[3,4-d]pyrimidin-3-yl)amino)nicotinamide], it took 4730 nM to reach half-maximal inhibition (IC50).

`Cc1ncc(C(=O)NCCN2CCCC23CC3)cc1Nc1nn(C)c2nc(Nc3cnn(C)c3)ncc12` [Example 53, N-(2-(4-azaspiro[2.4]heptan-4-yl)ethyl)-6-methyl-5-((1-methyl-6-((1-methyl-1H-pyrazol-4-yl)amino)-1H-pyrazolo[3,4-d]pyrimidin-3-yl)amino)nicotinamide] gave an IC50 of 4270 nM. Same read-out and setting: to `Cc1ncc(C(=O)NCCN2CCC3(CCO3)CC2)cc1Nc1nn(C)c2nc(Nc3cnn(C)c3)ncc12` [Example 19, N-(2-(1-oxa-7-azaspiro[3.5]nonan-7-yl)ethyl)-6-methyl-5-((1-methyl-6-((1-methyl-1H-pyrazol-4-yl)amino)-1H-pyrazolo[3,4-d]pyrimidin-3-yl)amino)nicotinamide] belongs more than 7500 nM; to `Cc1ncc(C(=O)NCCN2CCCC2(C)C)cc1Nc1nn(C)c2nc(Nc3cnn(C)c3)ncc12` [Example 39, N-(2-(2,2-dimethylpyrrolidin-1-yl)ethyl)-6-methyl-5-((1-methyl-6-((1-methyl-1H-pyrazol-4-yl)amino)-1H-pyrazolo[3,4-d]pyrimidin-3-yl)amino)nicotinamide], more than 7500 nM; to `Cc1ncc(C(=O)NCCN2CCCC2(C)C)cc1Nc1nn(C)c2nc(Nc3ccn(C)n3)ncc12` [Example 34, N-(2-(2,2-dimethylpyrrolidin-1-yl)ethyl)-6-methyl-5-((1-methyl-6-((1-methyl-1H-pyrazol-3-yl)amino)-1H-pyrazolo[3,4-d]pyrimidin-3-yl)amino)nicotinamide], more than 7500 nM.
